The source of these data is patent US20230174584A1, “Antibiotic Compounds” (priority 2019, published 2023).

Experiment [1] deals with E. faecalis E7604. In words: microbe, parasite or virus in culture. Type of experiment: cell-based, Enterococcus faecalis. To be noted: E. faecalis E7604 VRE (vanB). Here is the method:
(§1) The antibacterial activity of the compounds was tested against a panel of bacteria, including Gram-positive bacteria (S. aureus ATCC29213, S. aureus USA300, S. aureus LIM-2, NR-45881, S. aureus HIP13419, NR-46413, E. faecium E155, E. faecium E7314, E. faecium E980, E. faecalis E1246, E. faecalis E7406 and S. pneumonia 153). The antibacterial activity of the compounds was further tested against S. aureus NY-155, NR-46236, S. aureus HIP12864, NR-46074, S. aureus 880 (BR-VRSA), NR-49120, E. faecalis E1246, E. faecalis E7604, as well as some Gram-negative bacteria (Escherichia coli and Klebsiella pneumoniae). Minimum inhibitory concentrations (MICs) in μg/mL were performed according to the CLSI guidelines. From glycerol stocks, bacterial strains were cultured on blood agar plates and incubated at 37° C. for 18 h. A single colony was transferred to tryptic soy broth (TSB) with 0.002% polysorbate 80 (p80). For the Enterococcus, VISA and VRSA strains, the cultures were grown at 37° C. until the optical density of the suspension reached a level equivalent to the 0.5 McFarland standard. The bacterial suspensions were diluted in TSB with 0.002% p80 to reach a bacterial cell density of 10^6 CFU/mL. In case of the other (vancomycin-sensitive) S. aureus strains, the direct colony suspension method was used. For these strains, after transfer of the colonies to TSB with 0.002% p80, they were immediately diluted to 10^6 CFU/mL, instead of incubated prior to this dilution. In the case of S. pneumonia, direct colony suspension was used by immediately suspending multiple colonies from fresh blood agar plates in TSB+0.002% p80 to an OD600 of 0.5 and subsequent dilution to 10^6 CFU mL^−1 in TSB+0.002% p80+5% lysed horse blood. Antibiotic dilutions for this strains were also made in TSB+0.002% p80+5% lysed horse blood. Both agar and microplates containing S. pneumonia were incubated at 37° C. with 5% CO2 for 24 h with constant shaking (600 rpm). […] The cultures were grown to exponential phase (OD600=0.5) at 37° C. […] In polypropylene 96-well microtiter plates, test compounds were added in biological triplicates and serial diluted 2-fold by transfer and mixing from one well to the next to achieve a final volume of 50 μL per well. An equal volume of bacterial suspension (10^6 CFU mL^−1) was added to the wells. The plates were sealed with breathable membranes and incubated at 37° C. for 24 h with constant shaking (600 rpm). In polypropylene microtiter plates, 100 μL of the test compounds was added to the first row in biological triplicates, and 50 μL of media was added to the other wells. The compounds were subjected to serial dilution by transfer and mixing of 50 μL from one well to the next. Subsequently, 50 μL of bacterial suspension (10^6 CFU/mL) was added to the wells. The plates were sealed with breathable membranes and incubated at 37° C. for 24 h with constant shaking (600 rpm). Positive growth control consisted of wells with bacterial suspension and without antibiotic. Negative growth control consisted of solely media without bacterial suspension or antibiotic. The MICs were determined from the median of a minimum of triplicates.

Experiment [2] has as its system E. faecalis E7406. In words: microbe, parasite or virus in culture. The experiment is classed as cell-based, Enterococcus faecalis. Particulars: E. faecalis E7406 VRE (VanB). Here is the method:
as §1

The subject of experiment [3] is E. faecalis E1246. Put plainly: MIC assay. Type of experiment: cell-based, Enterococcus faecalis. As for the experimental part: as §1
The subject of experiment [4] is S. pneumoniae 153. Put plainly: MIC assay. The experiment is classed as cell-based. Particulars: S. pneumoniae 153; TSB+0.002% p80+5% lysed horse blood. Here is the method:
as §1

The test system of experiment [5] is S. aureus ATCC29213. In words: MIC assay. The experiment is classed as cell-based, Staphylococcus aureus. Particulars: S. aureus ATCC29213 MSSA. Here is the method: as §1
Experiment [6] concerns S. aureus NY-155, NR-46236. In words: MIC assay. To be noted: S. aureus NY-155, NR-46236 MRSA. Type of experiment: cell-based, Staphylococcus aureus. As for the experimental part: as §1
The subject of experiment [7] is S. aureus 880 (BR-VRSA), NR-49120. Put plainly: MIC assay. Type of experiment: cell-based, Staphylococcus aureus. Particulars: S. aureus 880, NR-49120 VRSA. As for the experimental part:
as §1

Experiment [8] concerns S. aureus HIP12864, NR-46074. Put plainly: MIC assay. Type of experiment: cell-based, Staphylococcus aureus. To be noted: S. aureus HIP12864, NR-46074 VISA. Here is the method:
as §1

Experiment [9] concerns S. aureus LIM-2, NR-25881. Put plainly: MIC assay. Type of experiment: cell-based, Staphylococcus aureus. To be noted: S. aureus LIM-2, NR-25881 VISA. As for the experimental part: as §1
For experiment [10], the system named is E. faecium E980. In words: MIC assay. Type of experiment: cell-based, Enterococcus faecium. To be noted: E. faecium E980 VSE. As for the experimental part:
as §1

In experiment [11] the test system is MRSA USA300. In words: MIC assay in the presence of sheep serum. To be noted: MRSA USA300, TSB + 0.002% p80 + 50% sheep serum. The experiment is classed as cell-based, Staphylococcus aureus. As for the experimental part:
as §1
The activity of the compounds was further assessed against MRSA USA300 strain in the presence of sheep) serum in another MIC assay. The cultures that grew in the presence of serum used TSB+0.002% P80+50% sheep serum as growth media, as opposed to normal MICs done in only TSB+0.002% P80.

Experiment [12] deals with S. aureus HIP13419, NR-46413. In words: microbe, parasite or virus in culture. The experiment is classed as cell-based, Staphylococcus aureus. To be noted: S. aureus HIP13419, NR-46413 VRSA. Here is the method: as §1
Experiment [13] deals with S. aureus USA300. In words: microbe, parasite or virus in culture. The experiment is classed as cell-based, Staphylococcus aureus. Here is the method: as §1
Experiment [14] has as its system E. faecium E155. In words: microbe, parasite or virus in culture. Type of experiment: cell-based, Enterococcus faecium. To be noted: E. faecium E155 VRE (VanA). As for the experimental part:
as §1

The subject of experiment [15] is E. faecium E7314. Put plainly: microbe, parasite or virus in culture. Type of experiment: cell-based, Enterococcus faecium. To be noted: E. faecium E7314 VRE (VanB). As for the experimental part: as §1
[16] abbreviates: E. faecalis E1246 VRE (VanA), Table 7.
Setting [17] is: E. faecalis E1246 VRE (vanA), Table 9.

Converted amounts (≈) assume the structure as drawn.

As for `CN[C@H](CC(C)C)C(=O)N[C@H]1C(=O)N[C@@H](CC(N)=O)C(=O)N[C@H]2C(=O)N[C@H]3C(=O)N[C@H](C(=O)N[C@H](C(=O)O)c4cc(O)cc(O)c4-c4cc3ccc4O)[C@H](O)c3ccc(c(Cl)c3)Oc3cc2cc(c3O[C@@H]2O[C@H](CO)[C@@H](O)[C@H](O)[C@H]2O[C@H]2C[C@](C)(NCc3ccc(N=C(N)NC/C=C(\C)CC/C=C(\C)CCC=C(C)C)cc3)[C@H](O)[C@H](C)O2)Oc2ccc(cc2Cl)[C@H]1O` [Compound 15], the MIC was 0.031 µg/mL (≈ 0.0172 µM) in [1]; 0.03125 µg/mL (≈ 0.0174 µM) in experiment [2]; 1 µg/mL (≈ 0.555 µM) in experiment [3] (setting [16]); 1 µg/mL (≈ 0.555 µM) in experiment [3] (setting [17]); not above 0.008 µg/mL in experiment [4]; 0.03125 µg/mL (≈ 0.0174 µM) in experiment [5]. The MIC in experiment [6] came out at 0.125 µg/mL (≈ 0.0694 µM); in experiment [7] it was 0.5 µg/mL (≈ 0.278 µM); in [8], 0.125 µg/mL (≈ 0.0694 µM); in experiment [9] it was 0.125 µg/mL (≈ 0.0694 µM); in experiment [10], 0.03125 µg/mL (≈ 0.0174 µM); in [11], 1 µg/mL. For the same molecule, the MIC in experiment [12] worked out at 0.125 µg/mL (≈ 0.0694 µM); in [13] (MRSA USA300, TSB + 0.002% p80), 0.063 µg/mL; in experiment [13] (S. aureus USA300 MRSA), 0.0625 µg/mL (≈ 0.0347 µM); in [14], 0.125 µg/mL (≈ 0.0694 µM); in [15] it was 0.01562 µg/mL (≈ 0.00867 µM).

As for `CN[C@H](CC(C)C)C(=O)N[C@H]1C(=O)N[C@@H](CC(N)=O)C(=O)N[C@H]2C(=O)N[C@H]3C(=O)N[C@H](C(=O)N[C@H](C(=O)O)c4cc(O)cc(O)c4-c4cc3ccc4O)[C@H](O)c3ccc(c(Cl)c3)Oc3cc2cc(c3O[C@@H]2O[C@H](CO)[C@@H](O)[C@H](O)[C@H]2O[C@H]2C[C@](C)(NCc3ccc(N=C(N)NC45CC6CC(CC(C6)C4)C5)cc3)[C@H](O)[C@H](C)O2)Oc2ccc(cc2Cl)[C@H]1O` [Compound 17], the MIC in experiment [1] was 0.125 µg/mL (≈ 0.0722 µM); in experiment [2], 0.125 µg/mL (≈ 0.0722 µM); in experiment [3] (setting [16]), 16 µg/mL (≈ 9.24 µM); in [3] (setting [17]), 16 µg/mL (≈ 9.24 µM); in [4], 0.016 µg/mL (≈ 0.00924 µM); in experiment [5], 0.016 µg/mL (≈ 0.00924 µM). Besides, the MIC in experiment [6] was 0.031 µg/mL (≈ 0.0179 µM); in experiment [7], 8 µg/mL (≈ 4.62 µM); in experiment [8], not above 0.016 µg/mL; in experiment [9], 0.125 µg/mL (≈ 0.0722 µM); in experiment [10] it was not above 0.008 µg/mL; in [11], 0.125 µg/mL. Further, the MIC was determined as 8 µg/mL (≈ 4.62 µM) in [12]; 0.031 µg/mL in experiment [13] (MRSA USA300, TSB + 0.002% p80); 0.031 µg/mL (≈ 0.0179 µM) in experiment [13] (S. aureus USA300 MRSA); 8 µg/mL (≈ 4.62 µM) in experiment [14]; 0.016 µg/mL (≈ 0.00924 µM) in experiment [15].

As to `CN[C@H](CC(C)C)C(=O)N[C@H]1C(=O)N[C@@H](CC(N)=O)C(=O)N[C@H]2C(=O)N[C@H]3C(=O)N[C@H](C(=O)N[C@H](C(=O)O)c4cc(O)cc(O)c4-c4cc3ccc4O)[C@H](O)c3ccc(c(Cl)c3)Oc3cc2cc(c3O[C@@H]2O[C@H](CO)[C@@H](O)[C@H](O)[C@H]2O[C@H]2C[C@](C)(NCc3ccc(N=C(N)NCC45CC6CC(CC(C6)C4)C5)cc3)[C@H](O)[C@H](C)O2)Oc2ccc(cc2Cl)[C@H]1O` [Compound 18], the MIC was not above 0.008 µg/mL in [1]; not above 0.008 µg/mL in experiment [2]; 16 µg/mL (≈ 9.17 µM) in experiment [3] (setting [16]); 16 µg/mL (≈ 9.17 µM) in [3] (setting [17]); not above 0.008 µg/mL in experiment [4]; not above 0.008 µg/mL in experiment [5]. Also, the MIC in experiment [6] was not above 0.008 µg/mL; in experiment [7], 2 µg/mL (≈ 1.15 µM); in experiment [8] it was not above 0.016 µg/mL; in [9] it was 0.016 µg/mL (≈ 0.00917 µM); in [10], not above 0.008 µg/mL; in [11], 0.031 µg/mL. The MIC was 2 µg/mL (≈ 1.15 µM) in experiment [12]; not above 0.008 µg/mL in experiment [13] (MRSA USA300, TSB + 0.002% p80); not above 0.008 µg/mL in [13] (S. aureus USA300 MRSA); 2 µg/mL (≈ 1.15 µM) in experiment [14]; not above 0.008 µg/mL in [15].
